Measured values from patent US7427590B2, “Neurothrophic components of the ADNF I complex” (The United States of America as represented by the …, priority 2001, dated 2008).
“Also recorded” adds a separate entry of the source. Where two headings read alike, the source gives them in different places. Non-standard residues stand in square brackets, D forms with d. Residues, ends and D or L forms follow the SMILES beside them. *: point of attachment. Sta = CC(C)C[C@H](N)[C@@H](O)CC(=O)O; Isovaleryl = CC(C)CC(=O)*

How the values were obtained:
[1] = system: component II of the ADNF I complex; assay: Blockade of component II protease activity in cell-free protease assay; type: biochemical; conditions: 10 μl of pepstatin stock (1 mg/ml methanol, diluted 1:100)
Method: FIG. 28. A time course of component II (see FIGS. 26 and 27) in a cell-free protease assay using Bz-Arg-Gly-Phe-Phe-Pro-MβNA, HCl (Cathepsin D substrate). The conditions of the assay are as follows: 10 μl of substrate (5 mg dissolved in 100 μl of DMSO (dimethyl sulfoxide), diluted to 1 ml of water), 10 μl of 10 mM CaCl2; 50 μl of component II (10^−8 dilution of the preparation characterized in FIGS. 26 and 27); and 30 μl of buffer (0.5 M dibasic phosphate, pH 7.8). For this assay, buffer, enzyme, calcium were added to 96 well culture trays. Based on glycoprotein alpha-1 acid standards on NCHO capillary, the optimum protease activity is observed at 1 fM amounts of components II.
FIG. 29. […] In culture wells treated with pepstatin, 10 μl of the stock solution (1 mg dissolved in 1 ml of methanol, diluted 1:100 with water) was added. In control wells, an addition 10 ul of methanol/water (1:100 dilution in water) alone was added. Fluorescence changes indicative of peptide subtract cleavage were monitored as described in FIG. 28.

[2] = system: 14 kDa purified ADNF I complex; type: cell-based; conditions: pre-treatment of ADNF I, 1 μM TTX; for Effect on survival-promoting peak of component II (10^−8 dilution): 1 μM pepstatin A or 10 μg/ml E-64; for Effect on survival-promoting peak of component I (10^−12 dilution) / Effect on survival-promoting peak of component III (10^−5 dilution): 1 μM pepstatin A, 10 μg/ml E-64 or 0.1 mM subtilisin V inhibitor
[3] = system: dissociated cerebral cortical cultures; type: cell-based, rat

| Compound | Effect on survival-promoting peak of component II (10^−8 dilution) [2] | Effect on survival-promoting peak of component I (10^−12 dilution) [2] | Effect on survival-promoting peak of component III (10^−5 dilution) [2] | Survival-promoting activity of digest peptide fractions (neuronal cell counts) [3] | also measured |
| --- | --- | --- | --- | --- | --- |
| CC(C)CC(=O)N[C@H](C(=O)N[C@H](C(=O)N[C@@H](CC(C)C)[C@@H](O)CC(=O)N[C@@H](C)C(=O)N[C@@H](CC(C)C)[C@@H](O)CC(=O)O)C(C)C)C(C)C [Pepstatin A] (Isovaleryl-VV[Sta]A[Sta]-OH) | prevented | small decrease | not affected | – | Effect on component II-mediated increases in protease activity [1]: prevent the component II-mediated increases in protease activity; Effect on survival-promoting peak of component II (10^−8 dilution) ([2]; listed as pepstatin A): blocked; Effect on survival-promoting peak of component II (10^−8 dilution) ([2]; listed as peptstatin A): inhibited |
| GPTADITLTK | – | – | – | Significant increases in neuronal cell counts | – |
| C[C@H](NC(=O)OC(C)(C)C)C(=O)N1CCC[C@H]1C(=O)N[C@@H](Cc1ccccc1)C(=O)NOC(=O)c1ccc(Cl)cc1 [subtilisin V inhibitor, Boc-Ala-Pro-Phe-NHO-Bz-pCl] | – | enhanced | enhanced | – | – |
| CC(C)C[C@H](NC(=O)[C@H]1O[C@@H]1C(=O)O)C(=O)NCCCCN=C(N)N [E-64] | not diminished | inhibited; also recorded: prevented; also recorded: blocked | inhibited; also recorded: prevented; also recorded: blocked | – | – |
| NNSTTYAPISANVSTALGSTAALPTAAGPV | – | – | – | Significant increases in neuronal cell counts | Another peak of activity (concentration) [3]: 10^−8 M |
| SESSGTSELLTR | – | – | – | Significant increases in neuronal cell counts | – |
